Measurements published in patent US10093627B2, “Tetrahydroquinoline derivatives and their use as Epac inhibitors” (Institut National de la Sante et de la Recherche Medicale …, priority 2012, dated 2018).

Tests used:
[1] = system: Iso-induced ANF-Luc transcriptional activation; assay: ANF-Luc transcriptional activation (Firefly luciferase assay) in rat neonatal cardiomyocytes; type: cell-based; conditions: CE3F4 20 μM, 30 min pretreatment; Iso 10 μM, 8 h; FIG. 4A
Procedure: ANF and NFAT promoters were fused to the Firefly luciferase gene (ANF-Luc) (NFAT-Luc) to detect ANF and NFAT by Firefly Luciferase assay (see Materiel and Methods).
Rat neonatal cardiomyocytes were cotransfected with ANF-Luc and Epac1 or empty vector pcDNA3 as control. One day after transfection, cells were pretreated or not with CE3F4 (20 μM) for 30 min and stimulated or not with Iso (10 μM) for 8 h. Cells were then assayed for Luciferase activity. B) Iso-induced NFAT-Luc Transcriptional Activation is Blocked by CE3F4: Neonatal cardiomyocytes were transfected with NFAT-Luc. One day later cells were pretreated or not with CE3F4 (20 μM) for 30 min and stimulated or not with Iso (10 μM) for 8 h. The day after, cells were assayed for Luciferase activity.
Results were normalized to control for each experiment, and were expressed as means±S.E.M of at 4 (FIG. 4A) or 5 (FIG. 4B) independent experiments performed in triplicates.
The rat ANF promoter fused to the Firefly luciferase reporter gene (ANF-Luc) by Dr K. Knowlton, Epac and Rap1 plasmid construct (Epac1^WT) by Drs J. L. Bos and J. de Gunzburg, respectively. The Firefly luciferase reporter plasmid driven by four NFAT consensus binding sites (NFAT-Luc) was purchased from Stratagene. […]
Cells were lysed, and luminescence was detected using the Luciferase Assay System (Promega) according to the manufacturer's instructions with Tecan Infinite.

[2] = target: T1, Epac1 (Homo sapiens, UniProt O95398); assay: Epac1 nucleotide exchange activity, multipoint (time-course) method, bGDP-loaded GST-Rap1A; type: biochemical; conditions: 20 μM CE3F4, single dose; 2 μM compound 007; FIG. 1
T1 construct: Recombinant human Epac1 (residues 149-881), deleted of its Dishevelled, Egl-10, and Pleckstrin (DEP) domain; made in house
T1 sequence (O95398 149-881 isoform O95398-3): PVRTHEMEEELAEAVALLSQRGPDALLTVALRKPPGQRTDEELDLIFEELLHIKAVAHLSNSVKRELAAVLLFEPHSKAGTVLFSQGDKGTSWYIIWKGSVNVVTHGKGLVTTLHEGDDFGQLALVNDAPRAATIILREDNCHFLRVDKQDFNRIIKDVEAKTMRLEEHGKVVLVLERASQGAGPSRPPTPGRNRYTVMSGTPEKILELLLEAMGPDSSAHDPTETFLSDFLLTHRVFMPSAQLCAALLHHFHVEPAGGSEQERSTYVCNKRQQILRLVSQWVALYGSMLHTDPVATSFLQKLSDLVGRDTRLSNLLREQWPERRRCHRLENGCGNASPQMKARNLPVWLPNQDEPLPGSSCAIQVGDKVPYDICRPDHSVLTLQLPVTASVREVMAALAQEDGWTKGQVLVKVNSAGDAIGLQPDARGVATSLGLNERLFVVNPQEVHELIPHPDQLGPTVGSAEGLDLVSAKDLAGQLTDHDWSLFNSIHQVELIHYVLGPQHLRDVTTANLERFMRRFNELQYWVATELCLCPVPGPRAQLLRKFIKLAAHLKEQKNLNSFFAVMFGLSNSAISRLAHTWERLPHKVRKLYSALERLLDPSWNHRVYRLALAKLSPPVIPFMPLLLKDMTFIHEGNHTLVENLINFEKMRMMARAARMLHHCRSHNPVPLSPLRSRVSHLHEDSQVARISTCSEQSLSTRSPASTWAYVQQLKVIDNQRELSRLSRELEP
Procedure: Epac1 nucleotide exchange activity was measured: • in the absence of compound 007, • or in the presence of 2 μM of compound 007, either alone or with 25 μM of compound 009, • or with 20 μM of CE3F4.
Variations of RFU (Relative Fluorescence Units) were studied as a function of time and fitted to single exponentials. Reported values are mean±SEM (n=3). (see Materiel and Methods).
Concerning FIG. 1, a “multipoint” (time-course) method was used. All components except the agonist (007) were mixed in a well and the exchange activity of Epac1 was initiated by injection of the agonist. GST-Rapt was preloaded with a fluorescent derivative of GDP, and the Epac1-catalyzed nucleotide exchange was measured using a large excess of non-fluorescent GDP, by taking advantage of the spectroscopic difference between free and Rap1-bound fluorescently labeled GDP. The principle of the method is similar to that reported in particular by Van den Berghe et al. (1997; Oncogene 15, 845), except that Bodipy FL-labeled GDP (bGDP) was used here, rather than 2′,3′-bis(O)—N-methylanthraniloyl-GDP (mant-GDP). […]

Effect on Iso-induced ANF-Luc gene transcriptional activity [1]: significantly inhibited | Inhibition of the exchange reaction induced by Epac1 plus 007 [2]: inhibited the exchange reaction
Compound: CC1CCc2c(cc(Br)c(F)c2Br)N1C=O (racemic) [CE3F4]
